Reference: patent US9062043B2, “Fused tricyclic compounds as serine-threonine protein kinase and PARP modulators” (SENHWA BIOSCIENCES, INC., priority 2006, dated 2015)

system: HT29; assay: Cell proliferation assay, Alamar Blue, HT29; format: cell-based; conditions: Homo sapiens, HT-29; Table 16
Description: (§1) c. Plate 4,000-5,000 cells per well in 100 μl of medium and seed into a 96-well plate according to the following plate layout. Add cell culture medium only to wells B10 to B12. Wells B1 to B9 have cells but no compound added.
(§2) d. Add 100 μl of 2× drug dilution to each well in a concentration shown in the plate layout above. At the same time, add 100 μl of media into the control wells (wells B10 to B12). Total volume is 200 μl/well.
(§3) e. Incubate four (4) days at 37° C., 5% CO2 in a humidified incubator.
(§4) f. Add 20 μl Alamar Blue reagent to each well.
(§5) g. Incubate for four (4) hours at 37° C., 5% CO2 in a humidified incubator.
(§6) h. Record fluorescence at an excitation wavelength of 544 nm and emission wavelength of 590 nm using a microplate reader.
(§7) In the assays, cells are cultured with a test compound for approximately four days, the dye then is added to the cells and fluorescence of […] dye is detected after approximately four hours. Different types of cells can be utilized in the assays (e.g., HCT-116 human colorectal carcinoma cells, PC-3 human prostatic cancer cells and MiaPaca human pancreatic carcinoma cells). Anti-proliferative effects of representative compounds are provided hereafter.

SMILES	IC50 [µM]
O=C(O)c1ccc2c(c1)nc(Nc1ccccc1)c1ncsc12	> 50
O=C(O)c1ccc2c(c1)nc(Nc1cc(Cl)ccc1F)c1ccsc12	> 50
C#Cc1cccc(Nc2nc3cc(C(=O)O)ccc3c3sccc23)c1 [drawing 938]	23.1
COc1cccc(Nc2nc3cc(C(=O)O)ccc3c3scnc23)c1	> 50
N#Cc1cccc(Nc2nc3cc(C(=O)O)ccc3c3sccc23)c1	16.6

Further lines, results first:

IC50 [µM]	SMILES
5.36	O=C(O)c1ccc2c(c1)nc(Nc1cccc(Cl)c1)c1ccsc12
3.22	O=C(NC1CC1)c1cccc(Nc2nc3cc(-c4nnn[nH]4)ccc3c3sccc23)c1
1.89	O=C(O)c1ccc2c(c1)nc(Nc1cccc(F)c1)c1ccsc12
3.56	CNC(=O)c1cccc(Nc2nc3cc(C(=O)O)ccc3c3sccc23)c1
4.6	NS(=O)(=O)c1cccc(Nc2nc3cc(C(=O)O)ccc3c3sccc23)c1

same assay, conditions: Homo sapiens, HT-29; Table 19b

IC50 [µM]	SMILES
16.4	O=C(O)c1ccc2c(c1)nc(NCCCc1ccccc1)c1ccncc12 [drawing 1221]
46.9	O=C(O)c1ccc2c(c1)nc(NCCc1ccccc1)c1ccncc12 [drawing 1206]
31.3	O=C(O)c1ccc2c(c1)nc(NCCc1cccc(F)c1)c1ccncc12 [drawing 1220]
34	O=C(O)c1ccc2c(c1)nc(NCCc1cccc(Cl)c1)c1ccncc12 [drawing 1219]

system: Hs578T; assay: Cell proliferation assay, Alamar Blue, Hs578T; format: cell-based; conditions: Homo sapiens, Hs-578T; Table 16

SMILES	IC50 [µM]
O=C(O)c1ccc2c(c1)nc(Nc1cccc(Cl)c1)c1ccsc12	9.7
O=C(NC1CC1)c1cccc(Nc2nc3cc(-c4nnn[nH]4)ccc3c3sccc23)c1	7.79
CNC(=O)c1cccc(Nc2nc3cc(-c4nnn[nH]4)ccc3c3sccc23)c1	3.01
O=C(O)c1ccc2c(c1)nc(Nc1cccc(F)c1)c1ccsc12	8.67
c1ccc(Nc2nc3cc(-c4nnc[nH]4)ccc3c3sccc23)cc1	5.5
O=C(O)c1ccc2c(c1)nc(Nc1ccccc1)c1ncsc12	> 50
CNC(=O)c1cccc(Nc2nc3cc(C(=O)O)ccc3c3sccc23)c1	9.07
C#Cc1cccc(Nc2nc3cc(C(=O)O)ccc3c3sccc23)c1 [drawing 938]	9.96
NS(=O)(=O)c1cccc(Nc2nc3cc(C(=O)O)ccc3c3sccc23)c1	11
COc1cccc(Nc2nc3cc(C(=O)O)ccc3c3scnc23)c1	> 50
N#Cc1cccc(Nc2nc3cc(C(=O)O)ccc3c3sccc23)c1	12.3
O=C(O)c1ccc2c(c1)nc(Nc1ccccc1)c1ccsc12	6.38

system: not listed separately; assay: Pharmacokinetics in ICR mice after IV and PO dose; format: in vivo; conditions: PO, 24.5 mg/kg

SMILES	Kel [h⁻¹]
C#Cc1cccc(Nc2nc3cc(C(=O)O)ccc3c3cncnc23)c1 [drawing 1347]	0.0594

same assay, conditions: mouse, plasma, IV, 3.4 mg/kg

SMILES	AUC(0-inf) [ng·h/mL]	AUC(0-t) [ng·h/mL]	Cmax [ng/mL]	Vd [L/kg]
C#Cc1cccc(Nc2nc3cc(C(=O)O)ccc3c3cncnc23)c1 [drawing 1347]	4900	4810	4740	4.9

same assay, conditions: mouse, plasma, PO, 24.5 mg/kg

SMILES	AUC(0-inf) [ng·h/mL]	AUC(0-t) [ng·h/mL]	Cmax [ng/mL]	Tmax [min]
C#Cc1cccc(Nc2nc3cc(C(=O)O)ccc3c3cncnc23)c1 [drawing 1347]	10900	9120	1600	30

system: H1299; assay: Cell proliferation assay, Alamar Blue, H1299; format: cell-based; conditions: Homo sapiens, NCI-H1299; Table 16
Description: as §1, §2, §3, §4, §5, §6, §7

SMILES	IC50 [µM]
c1ccc(Nc2nc3cc(-c4nnc[nH]4)ccc3c3sccc23)cc1	17.8
O=C(O)c1ccc2c(c1)nc(Nc1ccccc1)c1ncsc12	38.8
O=C(O)c1ccc2c(c1)nc(Nc1cc(Cl)ccc1F)c1ccsc12	17.5
C#Cc1cccc(Nc2nc3cc(C(=O)O)ccc3c3sccc23)c1 [drawing 938]	16.9
COc1cccc(Nc2nc3cc(C(=O)O)ccc3c3scnc23)c1	18.5
N#Cc1cccc(Nc2nc3cc(C(=O)O)ccc3c3sccc23)c1	19.1

The next lines start with the values.

IC50 [µM]	SMILES
14.3	O=C(O)c1ccc2c(c1)nc(Nc1cccc(Cl)c1)c1ccsc12
12.7	O=C(NC1CC1)c1cccc(Nc2nc3cc(-c4nnn[nH]4)ccc3c3sccc23)c1
4.01	CNC(=O)c1cccc(Nc2nc3cc(-c4nnn[nH]4)ccc3c3sccc23)c1
8.78	O=C(O)c1ccc2c(c1)nc(Nc1cccc(F)c1)c1ccsc12
13.8	CNC(=O)c1cccc(Nc2nc3cc(C(=O)O)ccc3c3sccc23)c1
9.9	NS(=O)(=O)c1cccc(Nc2nc3cc(C(=O)O)ccc3c3sccc23)c1
4.39	O=C(O)c1ccc2c(c1)nc(Nc1ccccc1)c1ccsc12

system: MiaPaca human pancreatic carcinoma cells; assay: Cell proliferation assay, Alamar Blue, MiaPaca; format: cell-based; conditions: MIA PaCa-2, Table 16
Description: (§8) A representative cell-proliferation assay protocol using Alamar Blue dye (stored at 4° C., use 20 ul per well) is described hereafter.
as §1, §2, §3, §4, §5, §6, §7

SMILES	IC50 [µM]
O=C(O)c1ccc2c(c1)nc(Nc1ccccc1)c1ncsc12	> 10
O=C(O)c1ccc2c(c1)nc(Nc1cc(Cl)ccc1F)c1ccsc12	> 10
C#Cc1cccc(Nc2nc3cc(C(=O)O)ccc3c3sccc23)c1 [drawing 938]	> 10
COc1cccc(Nc2nc3cc(C(=O)O)ccc3c3scnc23)c1	> 10
N#Cc1cccc(Nc2nc3cc(C(=O)O)ccc3c3sccc23)c1	> 10

The remaining lines, values ahead:

IC50 [µM]	SMILES
9.82	O=C(O)c1ccc2c(c1)nc(Nc1cccc(Cl)c1)c1ccsc12
3.18	O=C(NC1CC1)c1cccc(Nc2nc3cc(-c4nnn[nH]4)ccc3c3sccc23)c1
> 10	CNC(=O)c1cccc(Nc2nc3cc(-c4nnn[nH]4)ccc3c3sccc23)c1
7.28	O=C(O)c1ccc2c(c1)nc(Nc1cccc(F)c1)c1ccsc12
> 10	CNC(=O)c1cccc(Nc2nc3cc(C(=O)O)ccc3c3sccc23)c1
> 10	NS(=O)(=O)c1cccc(Nc2nc3cc(C(=O)O)ccc3c3sccc23)c1
> 10	O=C(O)c1ccc2c(c1)nc(Nc1ccccc1)c1ccsc12

system: PanC1; assay: Cell proliferation assay, Alamar Blue, PanC1; format: cell-based; conditions: Homo sapiens, PANC-1; Table 19b; read-out: IC50 PanC1
Description: as §8, §1, §2, §3, §4, §5, §6, §7

IC50 [µM]	SMILES
34.4	O=C(O)c1ccc2c(c1)nc(NCCCc1ccccc1)c1ccncc12 [drawing 1221]
28.2	O=C(O)c1ccc2c(c1)nc(NCCc1cccc(F)c1)c1ccncc12 [drawing 1220]
28.1	O=C(O)c1ccc2c(c1)nc(NCCc1cccc(Cl)c1)c1ccncc12 [drawing 1219]

system: HCT-116 human colorectal carcinoma cells; assay: Cell proliferation assay, Alamar Blue, HCT-116; format: cell-based; conditions: HCT-116, Table 16, first HCT-116 column;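 further: cells exposed to compound for about 4 days, then Alamar Blue added and fluorescence read after about 4 h, medium-only wells as control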

IC50 [µM]	SMILES
5	c1ccc(Nc2nc3cc(-c4nnc[nH]4)ccc3c3sccc23)cc1
> 10	O=C(O)c1ccc2c(c1)nc(Nc1ccccc1)c1ccsc12

same assay, conditions: HCT-116, Table 16, second HCT-116 column

SMILES	IC50 [µM]
c1ccc(Nc2nc3cc(-c4nnc[nH]4)ccc3c3sccc23)cc1	7.6
O=C(O)c1ccc2c(c1)nc(Nc1ccccc1)c1ncsc12	> 10
O=C(O)c1ccc2c(c1)nc(Nc1cc(Cl)ccc1F)c1ccsc12	> 10
COc1cccc(Nc2nc3cc(C(=O)O)ccc3c3scnc23)c1	> 10

Continued, values first:

IC50 [µM]	SMILES
> 10	O=C(NC1CC1)c1cccc(Nc2nc3cc(-c4nnn[nH]4)ccc3c3sccc23)c1
> 10	CNC(=O)c1cccc(Nc2nc3cc(-c4nnn[nH]4)ccc3c3sccc23)c1
> 10	O=C(O)c1ccc2c(c1)nc(Nc1cccc(F)c1)c1ccsc12
> 10	CNC(=O)c1cccc(Nc2nc3cc(C(=O)O)ccc3c3sccc23)c1
> 10	NS(=O)(=O)c1cccc(Nc2nc3cc(C(=O)O)ccc3c3sccc23)c1
> 10	O=C(O)c1ccc2c(c1)nc(Nc1ccccc1)c1ccsc12

system: Jurkat; assay: Cell proliferation assay, Alamar Blue, Jurkat; format: cell-based; conditions: Homo sapiens, Table 16;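 further: cells exposed to compound for about 4 days at 37 °C, then Alamar Blue added and fluorescence read after about 4 h, controls given medium without drug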

SMILES	IC50 [µM]
c1ccc(Nc2nc3cc(-c4nnc[nH]4)ccc3c3sccc23)cc1	6.26
O=C(O)c1ccc2c(c1)nc(Nc1ccccc1)c1ncsc12	7.43

Continued, values first:

IC50 [µM]	SMILES
6.97	O=C(NC1CC1)c1cccc(Nc2nc3cc(-c4nnn[nH]4)ccc3c3sccc23)c1
4.22	CNC(=O)c1cccc(Nc2nc3cc(-c4nnn[nH]4)ccc3c3sccc23)c1
5.93	O=C(O)c1ccc2c(c1)nc(Nc1cccc(F)c1)c1ccsc12
8.69	CNC(=O)c1cccc(Nc2nc3cc(C(=O)O)ccc3c3sccc23)c1
6.12	O=C(O)c1ccc2c(c1)nc(Nc1ccccc1)c1ccsc12

system: BxPC3; assay: Cell proliferation assay, Alamar Blue, BxPC3; format: cell-based; conditions: Homo sapiens, BXPC-3; Table 16
Description: as §1, §2, §3, §4, §5, §6, §7

IC50 [µM]	SMILES
1.97	c1ccc(Nc2nc3cc(-c4nnc[nH]4)ccc3c3sccc23)cc1

same assay, conditions: Homo sapiens, BXPC-3; Table 19b

IC50 [µM]	SMILES
23.4	O=C(O)c1ccc2c(c1)nc(NCCCc1ccccc1)c1ccncc12 [drawing 1221]
3.29	O=C(O)c1ccc2c(c1)nc(NCCc1cccc(F)c1)c1ccncc12 [drawing 1220]
24.3	O=C(O)c1ccc2c(c1)nc(NCCc1cccc(Cl)c1)c1ccncc12 [drawing 1219]

system: A549; assay: Cell proliferation assay, Alamar Blue, A549; format: cell-based; conditions: Homo sapiens, Table 16
Description: as §1, §2, §3, §4, §5, §6, §7

SMILES	IC50 [µM]
c1ccc(Nc2nc3cc(-c4nnc[nH]4)ccc3c3sccc23)cc1	14.4
O=C(O)c1ccc2c(c1)nc(Nc1ccccc1)c1ncsc12	> 50
O=C(O)c1ccc2c(c1)nc(Nc1cc(Cl)ccc1F)c1ccsc12	31.1
C#Cc1cccc(Nc2nc3cc(C(=O)O)ccc3c3sccc23)c1 [drawing 938]	27.7
COc1cccc(Nc2nc3cc(C(=O)O)ccc3c3scnc23)c1	> 50
N#Cc1cccc(Nc2nc3cc(C(=O)O)ccc3c3sccc23)c1	16

Results, then the compound that gave them:

IC50 [µM]	SMILES
11.7	O=C(O)c1ccc2c(c1)nc(Nc1cccc(Cl)c1)c1ccsc12
4.49	O=C(NC1CC1)c1cccc(Nc2nc3cc(-c4nnn[nH]4)ccc3c3sccc23)c1
6.23	O=C(O)c1ccc2c(c1)nc(Nc1cccc(F)c1)c1ccsc12
6.94	CNC(=O)c1cccc(Nc2nc3cc(C(=O)O)ccc3c3sccc23)c1
7.6	NS(=O)(=O)c1cccc(Nc2nc3cc(C(=O)O)ccc3c3sccc23)c1

system: PC-3 human prostatic cancer cells; assay: Cell proliferation assay, Alamar Blue, PC-3; format: cell-based; conditions: Table 16, read-out: IC50 PC3
Description: as §8, §1, §2, §3, §4, §5, §6, §7

SMILES	IC50 [µM]
c1ccc(Nc2nc3cc(-c4nnc[nH]4)ccc3c3sccc23)cc1	7.26
O=C(O)c1ccc2c(c1)nc(Nc1ccccc1)c1ncsc12	> 50
O=C(O)c1ccc2c(c1)nc(Nc1cc(Cl)ccc1F)c1ccsc12	> 50
C#Cc1cccc(Nc2nc3cc(C(=O)O)ccc3c3sccc23)c1 [drawing 938]	17.8
COc1cccc(Nc2nc3cc(C(=O)O)ccc3c3scnc23)c1	> 50
N#Cc1cccc(Nc2nc3cc(C(=O)O)ccc3c3sccc23)c1	> 50

The next lines start with the values.

IC50 [µM]	SMILES
16.7	O=C(O)c1ccc2c(c1)nc(Nc1cccc(Cl)c1)c1ccsc12
5.31	O=C(NC1CC1)c1cccc(Nc2nc3cc(-c4nnn[nH]4)ccc3c3sccc23)c1
2.79	CNC(=O)c1cccc(Nc2nc3cc(-c4nnn[nH]4)ccc3c3sccc23)c1
2.66	O=C(O)c1ccc2c(c1)nc(Nc1cccc(F)c1)c1ccsc12
26.7	CNC(=O)c1cccc(Nc2nc3cc(C(=O)O)ccc3c3sccc23)c1
44.9	NS(=O)(=O)c1cccc(Nc2nc3cc(C(=O)O)ccc3c3sccc23)c1
9.09	O=C(O)c1ccc2c(c1)nc(Nc1ccccc1)c1ccsc12
